Reference: the OligoGym collection
HELM strings list units from the 5' end as sugar, base in round brackets, then linkage (d deoxyribose, r ribose, m 2'-O-methyl, p phosphodiester). Strings are as the collection lists them; they lack the last nucleoside at the 3' end of the tested compound. [moe] = 2'-O-(2-methoxyethyl) (MOE); [sp] = phosphorothioate linkage; [m5C] = 5-methylcytosine

Molecular target: GFAP
Assay: mouse, dose not given
Settings: ASO

| Substance | 3 h FOB score |
| --- | --- |
| RNA1{[moe]([m5C])[sp].[moe](T)p.[moe](T)p.[moe](G)p.[moe](G)[sp].d(A)[sp].d([m5C])[sp].d(T)[sp].d([m5C])[sp].d([m5C])[sp].d(T)[sp].d(T)[sp].d(A)[sp].d(A)[sp].d(T)[sp].[moe](G)p.[moe](A)p.[moe]([m5C])[sp].[moe]([m5C])}$$$$ (last 3' nucleoside missing) | 0 score 0-7 |
| RNA1{[moe](A)[sp].[moe](G)p.[moe]([m5C])p.[moe]([m5C])p.[moe](A)[sp].d(G)[sp].d(T)[sp].d(G)[sp].d(T)[sp].d([m5C])[sp].d(T)[sp].d(T)[sp].d([m5C])[sp].d(A)[sp].d([m5C])[sp].[moe](T)p.[moe](T)p.[moe](T)[sp].[moe](G)}$$$$ (last 3' nucleoside missing) | 2 score 0-7 |
| RNA1{[moe](A)[sp].[moe](T)p.[moe](T)p.[moe](T)p.d(G)[sp].d(T)[sp].d([m5C])[sp].d(T)[sp].d(T)[sp].d(T)[sp].d(A)[sp].d(T)[sp].d(T)[sp].d(T)[sp].[moe](T)p.[moe](T)p.[moe]([m5C])p.[moe]([m5C])[sp].[moe](T)}$$$$ (last 3' nucleoside missing) | 0 score 0-7 |
| RNA1{[moe](G)[sp].[moe](T)p.[moe]([m5C])p.[moe](A)p.[moe]([m5C])[sp].d(A)[sp].d(T)[sp].d(T)[sp].d([m5C])[sp].d(A)[sp].d([m5C])[sp].d(T)[sp].d(A)[sp].d(A)[sp].d(T)[sp].[moe](A)p.[moe](T)p.[moe](T)[sp].[moe](T)}$$$$ (last 3' nucleoside missing) | 0 score 0-7 |
| RNA1{[moe]([m5C])[sp].[moe]([m5C])p.[moe](A)p.[moe](T)p.[moe](T)[sp].d(T)[sp].d(A)[sp].d(T)[sp].d([m5C])[sp].d(T)[sp].d(G)[sp].d(T)[sp].d(G)[sp].[moe]([m5C])p.[moe](T)p.[moe](T)[sp].[moe](T)}$$$$ (last 3' nucleoside missing) | 4 score 0-7 |
| RNA1{[moe](T)[sp].[moe](T)p.[moe](G)p.[moe](A)p.[moe](G)[sp].d(A)[sp].d(T)[sp].d(A)[sp].d(T)[sp].d([m5C])[sp].d(T)[sp].d(T)[sp].d(G)[sp].[moe](T)p.[moe](G)p.[moe](A)[sp].[moe]([m5C])}$$$$ (last 3' nucleoside missing) | 3 score 0-7 |
| RNA1{[moe](G)[sp].[moe](T)p.[moe](G)p.[moe](A)p.[moe](T)[sp].d(T)[sp].d(T)[sp].d(T)[sp].d([m5C])[sp].d([m5C])[sp].d([m5C])[sp].d([m5C])[sp].d(G)[sp].[moe](T)p.[moe]([m5C])p.[moe](T)[sp].[moe](T)}$$$$ (last 3' nucleoside missing) | 0 score 0-7 |
| RNA1{[moe]([m5C])[sp].[moe](G)p.[moe]([m5C])p.[moe](A)p.[moe](G)[sp].d([m5C])[sp].d(A)[sp].d(T)[sp].d(T)[sp].d(T)[sp].d(G)[sp].d(T)[sp].d([m5C])[sp].d(T)[sp].d(T)[sp].[moe](T)p.[moe](A)p.[moe](T)[sp].[moe](T)}$$$$ (last 3' nucleoside missing) | 5 score 0-7 |
| RNA1{[moe](G)[sp].[moe]([m5C])p.[moe](A)p.[moe](G)p.[moe]([m5C])[sp].d(A)[sp].d(T)[sp].d(T)[sp].d(T)[sp].d(G)[sp].d(T)[sp].d([m5C])[sp].d(T)[sp].d(T)[sp].d(T)[sp].[moe](A)p.[moe](T)p.[moe](T)[sp].[moe](T)}$$$$ (last 3' nucleoside missing) | 4 score 0-7 |
| RNA1{[moe](G)[sp].[moe](T)p.[moe]([m5C])p.[moe](T)p.d(T)[sp].d(T)[sp].d(A)[sp].d(T)[sp].d(T)[sp].d(T)[sp].d(T)[sp].d(T)[sp].d([m5C])[sp].d([m5C])[sp].[moe](T)p.[moe]([m5C])p.[moe](A)p.[moe](G)[sp].[moe]([m5C])}$$$$ (last 3' nucleoside missing) | 3 score 0-7 |
| RNA1{[moe](G)[sp].[moe](T)p.[moe](G)p.[moe](T)p.[moe](A)p.[moe](T)p.d(T)[sp].d(A)[sp].d(G)[sp].d(G)[sp].d(A)[sp].d(T)[sp].d([m5C])[sp].d([m5C])[sp].d([m5C])[sp].d(A)[sp].[moe](T)p.[moe]([m5C])[sp].[moe](T)}$$$$ (last 3' nucleoside missing) | 4 score 0-7 |
| RNA1{[moe](T)[sp].[moe]([m5C])p.[moe](A)p.[moe]([m5C])p.[moe](A)[sp].d([m5C])[sp].d(T)[sp].d([m5C])[sp].d([m5C])[sp].d(T)[sp].d([m5C])[sp].d(A)[sp].d(G)[sp].d([m5C])[sp].d(T)[sp].[moe](A)p.[moe](G)p.[moe](G)[sp].[moe](T)}$$$$ (last 3' nucleoside missing) | 1 score 0-7 |
| RNA1{[moe](A)[sp].[moe](G)p.[moe]([m5C])p.[moe](A)p.[moe](T)[sp].d(T)[sp].d(T)[sp].d(G)[sp].d(T)[sp].d([m5C])[sp].d(T)[sp].d(T)[sp].d(T)[sp].d(A)[sp].d(T)[sp].[moe](T)p.[moe](T)p.[moe](T)[sp].[moe](T)}$$$$ (last 3' nucleoside missing) | 1 score 0-7 |
| RNA1{[moe](T)[sp].[moe](G)p.[moe](T)p.[moe](G)p.[moe](A)[sp].d(T)[sp].d(T)[sp].d(T)[sp].d(T)[sp].d([m5C])[sp].d([m5C])[sp].d([m5C])[sp].d([m5C])[sp].d(G)[sp].d(T)[sp].[moe]([m5C])p.[moe](T)p.[moe](T)[sp].[moe](T)}$$$$ (last 3' nucleoside missing) | 5 score 0-7 |
| RNA1{[moe](G)[sp].[moe](T)p.[moe](G)p.[moe](A)p.[moe]([m5C])[sp].d(T)[sp].d(A)[sp].d(T)[sp].d([m5C])[sp].d(T)[sp].d(A)[sp].d(G)[sp].d(G)[sp].d(A)[sp].d(T)[sp].[moe](T)p.[moe](T)p.[moe](G)[sp].[moe](G)}$$$$ (last 3' nucleoside missing) | 6 score 0-7 |
| RNA1{[moe]([m5C])[sp].[moe](A)p.[moe](T)p.[moe](T)p.d(T)[sp].d(G)[sp].d(T)[sp].d([m5C])[sp].d(T)[sp].d(T)[sp].d(T)[sp].d(A)[sp].d(T)[sp].d(T)[sp].[moe](T)p.[moe](T)p.[moe](T)p.[moe]([m5C])[sp].[moe]([m5C])}$$$$ (last 3' nucleoside missing) | 0 score 0-7 |
| RNA1{[moe](G)[sp].[moe](T)p.[moe]([m5C])p.[moe](A)p.[moe](G)[sp].d([m5C])[sp].d([m5C])[sp].d(T)[sp].d(G)[sp].d(G)[sp].d(T)[sp].d(T)[sp].d(A)[sp].[moe](G)p.[moe]([m5C])p.[moe]([m5C])[sp].[moe](T)}$$$$ (last 3' nucleoside missing) | 1 score 0-7 |
| RNA1{[moe](T)[sp].[moe](G)p.[moe](A)p.[moe]([m5C])p.[moe](T)p.[moe](A)p.d(T)[sp].d([m5C])[sp].d(T)[sp].d(A)[sp].d(G)[sp].d(G)[sp].d(A)[sp].d(T)[sp].d(T)[sp].d(T)[sp].[moe](G)p.[moe](G)[sp].[moe]([m5C])}$$$$ (last 3' nucleoside missing) | 2 score 0-7 |
| RNA1{[moe](A)[sp].[moe](T)p.[moe](T)p.[moe](T)p.[moe](A)[sp].d(A)[sp].d([m5C])[sp].d(A)[sp].d(T)[sp].d(T)[sp].d(A)[sp].d(A)[sp].d(G)[sp].d(A)[sp].d(G)[sp].[moe]([m5C])p.[moe](A)p.[moe](G)[sp].[moe](G)}$$$$ (last 3' nucleoside missing) | 4 score 0-7 |
| RNA1{[moe]([m5C])[sp].[moe](T)p.[moe](G)p.[moe]([m5C])p.[moe]([m5C])p.[moe](A)p.d(T)[sp].d(T)[sp].d(T)[sp].d(A)[sp].d(T)[sp].d([m5C])[sp].d(T)[sp].d(G)[sp].d(T)[sp].d(G)[sp].[moe]([m5C])p.[moe](T)[sp].[moe](T)}$$$$ (last 3' nucleoside missing) | 1 score 0-7 |
| RNA1{[moe](G)[sp].[moe](T)p.[moe](A)p.[moe](G)p.[moe](T)[sp].d(T)[sp].d(T)[sp].d([m5C])[sp].d([m5C])[sp].d(T)[sp].d(T)[sp].d(T)[sp].d(T)[sp].d(A)[sp].d([m5C])[sp].[moe]([m5C])p.[moe](A)p.[moe](A)[sp].[moe](G)}$$$$ (last 3' nucleoside missing) | 1 score 0-7 |
| RNA1{[moe](T)[sp].[moe](T)p.[moe](T)p.[moe](G)p.[moe](G)p.d(T)[sp].d(G)[sp].d([m5C])[sp].d(T)[sp].d(T)[sp].d(T)[sp].d(T)[sp].d(G)[sp].d([m5C])[sp].d([m5C])[sp].[moe]([m5C])p.[moe]([m5C])p.[moe]([m5C])[sp].[moe](T)}$$$$ (last 3' nucleoside missing) | 2 score 0-7 |
| RNA1{[moe](G)[sp].[moe](G)p.[moe](G)p.[moe]([m5C])p.[moe](A)[sp].d(T)[sp].d(G)[sp].d(A)[sp].d(G)[sp].d([m5C])[sp].d([m5C])[sp].d(A)[sp].d(T)[sp].d([m5C])[sp].d([m5C])[sp].[moe](T)p.[moe]([m5C])p.[moe](T)[sp].[moe]([m5C])}$$$$ (last 3' nucleoside missing) | 3 score 0-7 |
| RNA1{[moe](G)[sp].[moe](G)p.[moe](T)p.[moe](A)p.[moe](T)[sp].d(G)[sp].d(A)[sp].d(T)[sp].d(A)[sp].d(G)[sp].d(G)[sp].d([m5C])[sp].d(T)[sp].d([m5C])[sp].d(T)[sp].[moe](G)p.[moe](G)p.[moe]([m5C])[sp].[moe](T)}$$$$ (last 3' nucleoside missing) | 5 score 0-7 |
| RNA1{[moe]([m5C])[sp].[moe]([m5C])p.[moe](T)p.[moe](T)p.d(G)[sp].d(T)[sp].d(G)[sp].d(A)[sp].d(T)[sp].d(T)[sp].d(T)[sp].d(T)[sp].d([m5C])[sp].d([m5C])[sp].[moe]([m5C])p.[moe]([m5C])p.[moe](G)p.[moe](T)[sp].[moe]([m5C])}$$$$ (last 3' nucleoside missing) | 1 score 0-7 |
| RNA1{[moe](T)[sp].[moe](T)p.[moe](T)p.[moe](G)p.[moe](T)p.[moe]([m5C])p.d(T)[sp].d(T)[sp].d(T)[sp].d(A)[sp].d(T)[sp].d(T)[sp].d(T)[sp].d(T)[sp].d(T)[sp].d([m5C])[sp].[moe]([m5C])p.[moe](T)[sp].[moe]([m5C])}$$$$ (last 3' nucleoside missing) | 0 score 0-7 |
